In US20180258100A1, “RAPAMYCIN ANALOGS SHOWING IMPROVED mTORC1 SPECIFICITY” (priority 2015, published 2018):
Where “and” joins values, the source holds several entries; their conditions need not be identical. Equal values may be shown once.

What was measured:
mTORC1 [1] = target: T1, mTORC1 (Homo sapiens, UniProt P42345+P62942); assay: Western blot of PC3 cells treated with 100 nM compound, mTORC1 readout (pS6k/S6k); assay type: cell-based
T1 construct: endogenous in cells; host or cells: PC3 cells
Description: Protein concentrations were determined using the DC protein assay (Biorad). Equal amounts of protein were resolved by SDS-PAGE and transferred to nitrocellulose membrane using the Nu-Page system. […] The following day, blots were washed 3 times in TBST, incubated for 2 h with secondary antibodies, and finally washed an additional 3 times in TBST.

mTORC1 [2] = target: T1, mTORC1; assay: AlphaLISA SureFire in PC3 cells, phosphorylation of S6 at Ser240/Ser244 (mTORC1 inhibition, selectivity ratios); assay type: cell-based
Description: PC3 cells were maintained in F12K media (ATCC/GIBCO, Cat# ATCC 30-2004) supplemented with additional 10% FBS (Gemini, cat#100-106), 1% Penicillin/Streptomycin (Life Technologies, cat #15140-122), and 2 mM L-Glutamine (Life Technologies, cat#25030) and cultured at 37° C. For AlphaLISA experiments, cells were seeded in 96-well plates for 24 hours and treated at various concentrations of compound (from approx. 8 fM to 10 μM) for 24 hours. Cells were harvested by lysis in the buffer supplied with the AlphaLISA kit. […] Cells from plates were lysed and incubated for 10 min at room temperature while shaking. Cell lysates were incubated with acceptor mix for 2 hours at room temperature; the donor mix was then added and the resulting solution was incubated for 2 hours at room temperature. AlphaLISA® signal was determined on a Fusion-Alpha FP HT (Perkin Elmer). Percent inhibition was calculated by comparison to the highest inhibition value obtained in the response-concentration curve. IC50s were calculated using Prism software.

mTORC2 = target: T2, mTORC2 (Homo sapiens, UniProt P42345+P62942); assay: AlphaLISA SureFire Akt 1/2/3 in PC3 cells, phosphorylation of Akt at Ser473 (mTORC2 inhibition); assay type: cell-based
T2 construct: endogenous in cells; host or cells: PC3 cells
T2 sequence (P62942 2-108 limits assumed, other chains not shown): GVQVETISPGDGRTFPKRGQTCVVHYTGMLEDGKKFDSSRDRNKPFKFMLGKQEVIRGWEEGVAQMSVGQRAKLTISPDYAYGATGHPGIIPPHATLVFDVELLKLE
Description: mTORC1 inhibition was determined using the AlphaLISA® SureFire® kit (Perkin Elmer) which measures phosphorylation of S6 kinase at positions Ser^240 and Ser^244. mTORC2 inhibition was determined by the AlphaLISA® SureFire® kit for Akt 1/2/3, which determines phospholyltation of Akt protein at position Ser^473. Cells from plates were lysed and incubated for 10 min at room temperature while shaking. Cell lysates were incubated with acceptor mix for 2 hours at room temperature; the donor mix was then added and the resulting solution was incubated for 2 hours at room temperature. AlphaLISA® signal was determined on a Fusion-Alpha FP HT (Perkin Elmer). Percent inhibition was calculated by comparison to the highest inhibition value obtained in the response-concentration curve. IC50s were calculated using Prism software. […]

mTORC1 [3] = target: mTORC1 (Mus musculus, UniProt P26883+Q9JLN9); assay: Western blot of mouse tissues after 3 weeks i.p. dosing, mTORC1 (P-S6/total S6); assay type: in vivo, female C57BL/6J mice; details: 12 mg/kg i.p. every other day for 3 weeks
Description: (§1) 10-week old female C57BL/6J mice were given intraperitoneal injections of 8 mg/kg rapamycin (LC laboratories), 12 mg/kg compound 390 or vehicle every other day for three weeks (N=5 mice/group), such as to mimic chronic exposure conditions. 24 hours after the last injection, tissues were dissected from the mice and immediately frozen in liquid nitrogen. The tissues were homogenized using the Omni TH homogenizer (Omni International) on ice in RIPA buffer and then centrifuged at 13,000 rpm for 15 minutes at 4° C. The supernatants were collected and protein concentration was determined using the DC protein assay (Biorad).
The mTORC1/2 inhibition was determined by Western blots. Equal amounts of protein were resolved by SDS-PAGE and transferred to nitrocellulose membrane using the Invitrogen Nu-Page system. The membranes were blocked for 1 h in 5% milk and incubated overnight in the appropriate antibodies. The following day, blots were washed 3 times in TBST, incubated for 2 h with secondary antibodies (donkey anti rabbit hrp conjugated), and finally washed an additional 3 times in TBST. ECL Prime (Amersham) was used to detect the proteins of interest and ImageJ software was used to quantify the band intensity of the Western blots.

[4] = Plasma lipid levels after chronic i.p. dosing; assay type: in vivo, female C57BL/6J mice; details: rapamycin 8 mg/kg, compound 390 12 mg/kg i.p. every other day; versus vehicle
Description: as §1
Plasma lipid levels were determined at the end of the three-week exposure. Free fatty acids in the serum were measured by the HR Series NEFA-HR(2) (Wako Diagnostics, Richmond, Va.). Triglycerides and cholesterol in serum were measured by Triglycerides Liquicolor Test and Cholesterol Liquicolor Test (Stanbio laboratory, Boerne, Tex.), respectively.

[5] = Steady state glucose levels after one week of i.p. dosing; assay type: in vivo, female C57BL/6J mice; details: 12 mg/kg i.p. every other day, versus vehicle
Description: as §1
Steady state glucose levels were determined after one week from study initiation using a Bayer Contour blood glucose meter and test strips from small blood samples, which were withdrawn from a tail vein nick. At the end of the second week, the animals were challenged by administration of 2 mg/kg glucose; glucose levels were determined for two hours following the challenge at 30 min intervals.

mTORC2 complex = mTORC2 complex (Mus musculus, UniProt P26883+Q9JLN9); assay: mTORC2 assembly: immunoprecipitation of Rictor from liver and immunoblotting for mTOR; assay type: in vivo, male C57BL/6J mice; details: liver, four weeks; rapamycin 8 mg/kg, compound 390 12 mg/kg i.p. every other day
Sequence of mTORC2 complex (P26883 2-108 limits assumed, other chains not shown): as the sequence (P62942 2-108 limits assumed, other chains not shown) above, with M49T, T75I, P78S counted along it
Description: Fortyfive C57BL/6J male mice, housed three per cage, were weighed and their body composition was measured with an EchoMRI 3-in-1 system. […] Mice received every-other-day injections of either vehicle, rapamycin (8 mg/kg), or compound 390 (12 mg/kg). A glucose tolerance test was performed after 2 weeks (morning after the 8th injection). A pyruvate tolerance test was performed after 3 weeks. Glucose stimulated insulin secretion assay was performed after 4 weeks and additional blood was collected for whole blood analysis. Body composition was measured on day −2 and day 31.

[6] = tested on: autophagy markers (pULK/ULK, Beclin-1, Vps34, LC3B, p62); assay: Autophagy markers in brain of Tg4510 mice; assay type: in vivo; details: 12 mg/kg i.p., 4 weeks
Description: (§2) Female Tg4510 and control mice were purchased from the Jackson Laboratory (Bar Harbor, Me.). All mice were examined and weighed prior to initiation of the study to ensure adequate health and suitability and were caged under controlled temperature (20-23° C.) and relative humidity (maintained around 50%). All tests were performed during the animal's light cycle phase. Mice received every-other-day injections of either vehicle or compound 390 (12 mg/kg) in the following groups: (a) wild-type (WT) mice receiving vehicle (n=16); (b) Tg4510 mice receiving vehicle (n=15) and (c) Tg4510 mice receiving DL390 (12 mg/kg; n=15)
A number of autophagy markers were measured both in the cortex and hippocampus tissue to assess the status of the autophagic clearance mechanism across the three study groups. Specifically, pULK/ULK, Beclin-1, Vps34, LC3B and p62 were measured using the appropriate antibodies (Cell Signaling Technology).

Tg4510 mice = assay: Morris water maze test in Tg4510 mice; assay type: in vivo; details: 12 mg/kg, 4-weeks treatment, versus vehicle-treated Tg4510 mice
Description: as §2
The test was performed in a circular tank, measuring 48″ in diameter. Extra-maze cues were mounted around the water tank. On 5 consecutive days of the week, test sessions were conducted with the platform submerged approximately 1.3 cm below the surface of the water. On each day, there were 4 trials, 60 s long. Approximately 15 min elapsed between each trial. On the fifth day of acquisition training, the last trial (out of 4) consisted of 60 s without the platform.

CO[C@H]1CC2CC[C@@H](C)[C@@](O)(O2)C(=O)C(=O)N2CCCC[C@H]2C(=O)O[C@H]([C@@H](C)CC2CCC(O)CC2)CC(=O)[C@@H](C)/C=C(\C)[C@H](O)[C@H](O)C(=O)[C@@H](C)C[C@H](C)/C=C/C=C/C=C/1C (stereo partly shown) [compound 390, 27-O-Desmethyl-39-Desmethoxy Rapamycin]
mTORC1 inhibition (pS6k/S6k) (mTORC1 [1]): full mTORC1 inhibition
improvement of mTORC1 over mTORC2 selectivity compared to rapamycin (average) (mTORC1 [2]; AlphaLISA IC50 ratios): 51 fold
improvement of mTORC1 over mTORC2 selectivity compared to rapamycin (range) (mTORC1 [2]; AlphaLISA IC50 ratios): 52-63 fold
Average IC50^mTORC2/IC50^mTORC1 (mTORC1 [2]; average of four replicates, 24 h): 429.90
IC50^mTORC2/IC50^mTORC1 (mTORC1 [2]; single replicates #1-#4 (N = 3 each), mTORC2 IC50 of the measurement divided by average mTORC1 IC50, 24 h, listed as nID390): 477.07 and 533.79 and 445.85 and 262.89
lower inhibition of mTORC2 compared to rapamycin (mTORC2): ~150 fold
mTORC1 inhibition in tissues (mTORC1 [3]; soleus muscle and liver): only partially inhibits mTORC1
mTORC1 inhibition in tissues (mTORC1 [3]; visceral fat, gastrocnemius muscle, pancreas, lung and kidney): strong inhibition of mTORC1
plasma cholesterol [4]: did not produce any changes
plasma free fatty acids [4]: did not produce any changes
plasma triglycerides [4]: did not produce any changes
change of steady state glucose plasma levels [5]: does not produce any substantial or statistically significant increase
integrity of hepatic mTORC2 complex assembly (mTORC2 complex): no effect upon hepatic mTORC2 assembly
Beclin-1 activity (initiation phase of autophagy) [6]: nearly full restoration of Beclin-1 activity
ULK1 phosphorylation (induction phase of autophagy) [6]: reduction of ULK1 phosphorylation
accumulated LC3B-II levels (maturation and lysosomal clearance) [6]: substantial reduction
accumulated p62 levels (maturation and lysosomal clearance) [6]: substantial reduction
autophagy in the brain, all stages [6]: substantial and statistically significant upregulation
behavioral performance, total distance travelled during acquisition days (Tg4510 mice): strong trends of behavioral improvement
